From BindingDB's records for doi:10.1016/j.ejmech.2019.05.010 (Queensland University of Technology, 2019)

Target: Genome polyprotein (Dengue virus type 2 (strain Thailand/16681/1984), UniProt P29990)
Test: Inhibition of DENV2 NS2B-NS3 serine protease expressed in human Huh7 cells after 3 days by luciferase reporter gene assay

## CC(=O)O[C@H]1CC(C)(C)C(=C=C/C(C)=C/C=C/C=C/C=C(C)/C=C2C=C(/C=C/[C@@]34O[C@]3(C)C[C@@H](O)CC4(C)C)C(=O)O/2)[C@](C)(O)C1
  EC50: 4.5 µM
